Here are results for nine compounds from ChEMBL document CHEMBL1147813, “Design, molecular modeling, synthesis, and anti-HIV-1 activity of new indolyl aryl sulfones. Novel derivatives of the indole-2-carboxamide” (J Med Chem, 2006).

The test system of test [1] is Human immunodeficiency virus 1. Kind of test: Activity against HIV1 3B assessed by inhibition of p24 production in human lymphocytes. As to conditions: Human immunodeficiency virus 1, 3B. In kind it is functional, organism-based.
For test [2], the system named is Human immunodeficiency virus 1. The experiment in a line: Antiviral activity against HIV1 3B in MT4 cell line. In kind it is functional, organism-based. As to conditions: Human immunodeficiency virus 1, 3B.
The test system of test [3] is Lymphocyte. The experiment in a line: Selectivity index, TC50 for human lymphocytes/EC50 for HIV1 3B. The class given is functional.
For test [4], the system named is Human immunodeficiency virus. The experiment in a line: Activity against HIV-112 assessed by inhibition of p24 production in human lymphocytes. The note with it: Human immunodeficiency virus 1. The class given is functional, organism-based.
Test [5] concerns Lymphocyte. Kind of test: Cytotoxicity against human lymphocytes. In kind it is functional. The note with it: read-out: TC50 (the source's name).
Test [6] concerns Human immunodeficiency virus. Kind of test: Activity against HIV-AB1 assessed by inhibition of p24 production in human lymphocytes. The class given is functional, organism-based. The note with it: Human immunodeficiency virus 1.
For test [7], the system named is Human immunodeficiency virus 1. Kind of test: Antiviral activity against HIV1 in MT4 cell line. As to conditions: Human immunodeficiency virus 1, MT4. In kind it is functional, organism-based.
The test system of test [8] is Macrophage. The experiment in a line: Cytotoxicity against human macrophages. The note with it: read-out: TC50 (the source's name). The class given is functional.
The test system of test [9] is C8166. Kind of test: Antiproliferative activity against C8166 cell line by MTT assay. In kind it is functional. As to conditions: Homo sapiens, read-out: TC50 (the source's name). A general note: Tetrazolium assays rely on reduction of a dye to a coloured formazan, in cell work by metabolically active cells.
For test [10], the system named is Lymphocyte. The experiment in a line: Selectivity index, TC50 for human lymphocytes/EC50 for HIV-112. In kind it is functional.
Test [11] relates to Macrophage. The experiment in a line: Selectivity index, TC50 for human macrophages/EC50 for HIV1 […]. In kind it is functional.
Test [12] concerns Human immunodeficiency virus 1. The experiment in a line: Antiviral activity against HIV1 in C8166 cell line. As to conditions: Human immunodeficiency virus 1, C8166. The class given is functional, organism-based.
In test [13] the test system is Lymphocyte. The experiment in a line: Selectivity index, TC50 for human lymphocytes/EC50 for HIV-AB1. In kind it is functional.
Test [14] has as its system C8166. The experiment in a line: Selectivity index, TC50 for C8166 cell line/EC50 for HIV1. In kind it is functional.
The test system of test [15] is MT4. Kind of test: Cytotoxicity against MT4 cell line by MTT assay. In kind it is functional. As to conditions: Homo sapiens, read-out: TC50 (the source's name).
Test [16] relates to Human immunodeficiency virus 1. The experiment in a line: Antiviral activity against HIV1 K103N-Y181C mutant in MT4 cell line. In kind it is functional, organism-based. As to conditions: Human immunodeficiency virus 1, MT4.
Test [17] deals with MT4. Kind of test: Selectivity index, TC50 for MT4 cell line/EC50 for HIV1. The class given is functional.
Test [18] relates to Human immunodeficiency virus 1. Kind of test: Antiviral activity against HIV1 Y181C mutant in MT4 cell line. The class given is functional, organism-based. As to conditions: Human immunodeficiency virus 1, MT4.
In test [19] the test system is Human immunodeficiency virus 1. The experiment in a line: Antiviral activity against HIV1 […] in human macrophages. The class given is functional, organism-based.

Where only a bound is given, the exact number is not on record here.

The term EC50 denotes the midpoint of the concentration-response curve. For the compound `Cc1ccnc2c1NC(=O)c1cccnc1N2C1CC1` [NEVIRAPINE], the EC50 in [1] was 90 nM; in [2] it was 370 nM; in test [4], > 20000 nM; in test [6], > 20000 nM. Also, in [3], the Selectivity index was >1111. Besides, the CC50 in test [5] is > 100000 nM.

Consider `Cc1cc(C)cc(S(=O)(=O)c2c(C(=O)NNC(C)C)[nH]c3ccc(Cl)cc23)c1`, for which the EC50 is 0.7 nM in [7] (read-out: EC50); 0.7 nM in [7] (read-out: Log EC50 (converted)); 8 nM in test [1]; 0.7 nM in test [2]; 3 nM in [12]; 6 nM in test [4]. For the same compound, the EC50 in test [6] came to 8 nM; in test [16], 8600 nM; in test [18], 40 nM; in [19], 5 nM. Further, the CC50 in test [8], in test [9], in [15] and in [5] was > 100000 nM each time. Further, the Selectivity index was >16666 in [10]; >20000 in [11]; >12500 in test [13]; >12500 in test [3]; >33333 in [14]; >142857 in test [17].

Regarding `CCOC(=O)NNC(=O)c1[nH]c2ccc(Cl)cc2c1S(=O)(=O)c1cc(C)cc(C)c1`, the EC50 is 20 nM in test [7] (read-out: EC50); 20 nM in test [7] (read-out: Log EC50 (converted)); 20 nM in test [1]; 20 nM in test [2]; 50 nM in test [12]; 30 nM in test [4]. For the same compound, the EC50 was determined as 20 nM in [6], 9200 nM in test [16], 40 nM in [18] and 6 nM in test [19]. The CC50 in test [8] is > 100000 nM; in [9], > 100000 nM; in test [15], 100000 nM; in [5] it was > 100000 nM. For the same compound, the Selectivity index is given as >3333 in test [10]; >16666 in [11]; >5000 in [13]; >5000 in test [3]; >2000 in [14]; 5000 in [17].

As to `Cc1cc(C)cc(S(=O)(=O)c2c(C(=O)NNC(=O)NN)[nH]c3ccc(Cl)cc23)c1`, the EC50 is 10 nM in [7] (read-out: EC50); 10 nM in test [7] (read-out: Log EC50 (converted)); 30 nM in [1]; 40 nM in [2]; 8 nM in test [12]; 50 nM in test [4]. The EC50 came to 40 nM in test [6], 5700 nM in test [16], 20 nM in test [18] and 9 nM in [19]. For the same compound, the CC50 in test [8], in test [9], in test [15] and in test [5] was > 100000 nM in each case. The Selectivity index in [10] is listed as >2000; in [11] it was >11111; in test [13], >2500; in [3], >3333; in test [14], >12500; in [17] it was >10000.

`CNNC(=O)c1[nH]c2ccc(Cl)cc2c1S(=O)(=O)c1cc(C)cc(C)c1`: the half-maximal effective concentration (EC50) is 20 nM in [7] (read-out: EC50); 20 nM in [7] (read-out: Log EC50 (converted)); 20 nM in [1]; 50 nM in test [2]; 30 nM in test [12]; 40 nM in [4]. Further, the EC50 is 20 nM in test [6], > 20000 nM in test [16], 130 nM in test [18] and 30 nM in test [19]. Further, the CC50 in [8], in test [9], in [15] and in [5] was > 100000 nM throughout. The Selectivity index in [10] is reported as >2500; in [11] it was >3333; in [13], >5000; in [3], >5000; in test [14], >3333; in test [17] it was >5000.

`Cc1cc(C)cc(S(=O)(=O)c2c(C(=O)NN3CCOC3=O)[nH]c3ccc(Cl)cc23)c1`: the EC50 in test [7] (read-out: EC50) is 0.9 nM; in test [7] (read-out: Log EC50 (converted)), 0.899 nM; in test [1] it was 10 nM; in test [2], 1 nM; in [12], 3 nM; in test [4], 30 nM. Moreover, the EC50 in test [6] was 20 nM; in [16], 900 nM; in test [18], 10 nM. Further, the CC50 in [8] is > 100000 nM; in test [9], > 100000 nM; in [15] it was 100000 nM; in test [5] it was > 100000 nM. For the same compound, the Selectivity index is >3333 in [10]; >50000 in test [11]; >5000 in test [13]; >10000 in test [3]; >33333 in test [14]; 111111 in test [17].

For `CC(=O)NNC(=O)c1[nH]c2ccc(Cl)cc2c1S(=O)(=O)c1cc(C)cc(C)c1`, the EC50 is 5 nM in [7] (read-out: EC50); 5 nM in test [7] (read-out: Log EC50 (converted)); 10 nM in test [1]; 5 nM in test [2]; 7 nM in test [12]; 8 nM in test [4]. The EC50 in test [6] was 10 nM; in test [16] it was > 20000 nM; in test [18] it was 20 nM; in test [19], 8 nM. For the same compound, the CC50 in test [8], in test [9], in [15] and in [5] was > 100000 nM each time. Further, the Selectivity index in test [10] is >12500; in [11], >12500; in test [13], >10000; in test [3], >10000; in test [14], >14285; in test [17] it was >20000.

On to `Cc1cc(C)cc(S(=O)(=O)c2c(C(=O)NNC3CCCCC3)[nH]c3ccc(Cl)cc23)c1`, for which the EC50 in test [7] (read-out: EC50) was 50 nM; in test [7] (read-out: Log EC50 (converted)), 50 nM; in [1], 800 nM; in test [2], 100 nM; in [12], 80 nM; in [4], 1000 nM. The half-maximal effective concentration (EC50) in test [6] is 900 nM; in test [16], > 20000 nM; in test [18] it was 1200 nM; in test [19], 200 nM. In addition, the CC50 in test [8], in test [9], in [15] and in test [5] was > 100000 nM in each case. The Selectivity index is >100 in test [10]; >500 in test [11]; >111 in test [13]; >125 in test [3]; >1250 in [14]; >2000 in [17].

With `O=C(NN1CCOC1=O)c1[nH]c2ccc(Cl)cc2c1S(=O)(=O)c1ccccc1`, the concentration giving a half-maximal response (EC50) is 15 nM in test [7] (read-out: EC50); 15 nM in test [7] (read-out: Log EC50 (converted)); 100 nM in [1]; 15 nM in [2]; 20 nM in test [12]; 400 nM in test [4]. For the same compound, the EC50 in test [6] was 500 nM; in test [16], > 20000 nM; in test [18], 300 nM; in [19] it was 60 nM. Moreover, the CC50 in test [8], in test [9], in test [15] and in [5] was > 100000 nM throughout. Moreover, the Selectivity index in test [10] is on record as >250; in [11], >1666; in test [13], >200; in test [3] it was >1000; in [14], >5000; in [17], >6666.
